Experimental data reported in patent publication US20230159556A1, “NOVEL PROTEIN KINASE INHIBITORS” (TENOVA PHARMACEUTICALS INC., priority 2020, published 2023).
Where two headings read alike, the source gives them in different places.

Experiments:
EGFR_L858R/T790M/C797S = target: T1, EGFR_L858R/T790M/C797S (Homo sapiens, UniProt P00533, C797S/L858R/T790M); assay: In vitro biochemical kinase assay (33P-ATP filter-binding, Reaction Biology)
T1 construct: Reaction Biology Corporation (contract assay provider)
How it was run: (§1)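 Compounds preincubated with kinase 20 min at room temperature in Hepes pH 7.5 buffer (10 mM MgCl2, 2 mM DTT, 1% DMSO), then 33P-ATP added for 2 h. Filter-binding radioactivity expressed as % activity remaining versus DMSO; IC50 by curve fit.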

[1] = ether bond
[2] = ether bond, 25.0 °C, 16.0 h
EGFR_WT = target: T2, EGFR_WT (Homo sapiens, UniProt P00533); assay: In vitro biochemical kinase assay (33P-ATP filter-binding, Reaction Biology)
T2 construct: Reaction Biology Corporation (contract assay provider)
How it was run: as §1

[3] = tested on: BaF3-EGFR-Del19/T790M/C797S cells; assay: In vivo Cell Transplant Xenograft (CTX) model; parameters: species or system BALB/c nude mice; conditions: for tumor growth inhibition rate TGITV (%): end of the experiment
Procedure: The pharmacological experiments in vivo were performed on BALB/c nude mice that subcutaneously implanted BaF3-EGFR-Del19/T790M/C797S cells. BALB/c nude mice, female, 6-8 weeks, weighted about 16-19 grams, the mice were kept in a special pathogen-free environment, and in a single ventilation cage (3 mice per cage). The bedding and water of all the cages were disinfected before use. All animals were free to obtain standard certified commercial laboratory diets. The BaF3-EGFR-Del19/T790M/C797S cell (5×10^6 cells/mice) was implanted subcutaneously for tumor growth. After 10 days, the experiment was started the average tumor volume reached about 130 mm^3. The mice were divided into 4 groups with 6 mice in each group. Compound A29 was orally administered once daily continuously for 15 days at 5 mg/kg, 15 mg/kg and 45 mg/kg. The tumor volume was measured twice a week with a two-dimensional caliper and the volume was measured in cubic millimeters and calculated by the following formula: V=0.5 a×b2, where a and b were the major and minor diameters of the tumor, respectively. The tumor volume at day n is expressed as Relative Tumor Volume (RTV) and calculated according to the following formula: RTV=TVn/TV0, where TVn is the tumor volume at day n and TV0 is the tumor volume at day 0. The T/C (the ratio of tumor volume in […] mice) is determined by TIC (%)=(mean RTV of treated group)/(mean RTV of control group)×100%. The tumor growth inhibition rate TGITV (%) is calculated using the formula TGITV (%)=(1−T/C)×100%.

[4] = target: Ba/F3_EGFR_del19/T790M/C797S cell (Homo sapiens, UniProt P00533, T790M/C797S, cells depend on it, form not given); assay: BaF3 cell proliferation assay (CelltiterGlo, 72 hr); format: cell-based; conditions: 72 hr incubation; read-out: IC50 (nM, Ba/F3_EGFR_del19/T790M/C797S cell proliferation)
Procedure: (§2) The BaF3 cell proliferation assay was performed at Pharmaron (www.pharmaron.com, Beijing, China). The Ba/F3_WT and Ba/F3_Del19/T790M/C797S cell lines were maintained in 1640 medium containing 10% FBS, 1*PS and 1*Glutamax. Only cells with viability greater than 90% are used for assays. Dispense 30 μl of cell suspension at 700/well into 384 well microplate, add 30 nl compound solution into 384 cell plate by Echo, cells were incubated for 72 hr in 37° C./5% CO2 incubator, add 30 μl reagent CelltiterGlo assay kit (CTG, Promega) per well and shake plates, incubate the plate (avoiding light) at 37° C./5% CO2 for 30 min. and read the luminescence by Envision. The luminescence values were converted to % Inhibition. Calculate IC50 by fitting % inhibition values and log of compound concentrations to nonlinear regression (dose response−variable slope) with Graphpad 5.0.
(§3) Y=Bottom+(Top−Bottom)/(1+10^((Log IC50−X)*HillSlope))
(§4) X: log of inhibitor concentration; Y: % Inhibition.

Ba/F3_WT cell = assay: as above; format: cell-based; conditions: Mus musculus, 72 hr incubation
Procedure: as §2, §3, §4

T1 sequence (P00533 25-1210 T790M/C797S/L858R): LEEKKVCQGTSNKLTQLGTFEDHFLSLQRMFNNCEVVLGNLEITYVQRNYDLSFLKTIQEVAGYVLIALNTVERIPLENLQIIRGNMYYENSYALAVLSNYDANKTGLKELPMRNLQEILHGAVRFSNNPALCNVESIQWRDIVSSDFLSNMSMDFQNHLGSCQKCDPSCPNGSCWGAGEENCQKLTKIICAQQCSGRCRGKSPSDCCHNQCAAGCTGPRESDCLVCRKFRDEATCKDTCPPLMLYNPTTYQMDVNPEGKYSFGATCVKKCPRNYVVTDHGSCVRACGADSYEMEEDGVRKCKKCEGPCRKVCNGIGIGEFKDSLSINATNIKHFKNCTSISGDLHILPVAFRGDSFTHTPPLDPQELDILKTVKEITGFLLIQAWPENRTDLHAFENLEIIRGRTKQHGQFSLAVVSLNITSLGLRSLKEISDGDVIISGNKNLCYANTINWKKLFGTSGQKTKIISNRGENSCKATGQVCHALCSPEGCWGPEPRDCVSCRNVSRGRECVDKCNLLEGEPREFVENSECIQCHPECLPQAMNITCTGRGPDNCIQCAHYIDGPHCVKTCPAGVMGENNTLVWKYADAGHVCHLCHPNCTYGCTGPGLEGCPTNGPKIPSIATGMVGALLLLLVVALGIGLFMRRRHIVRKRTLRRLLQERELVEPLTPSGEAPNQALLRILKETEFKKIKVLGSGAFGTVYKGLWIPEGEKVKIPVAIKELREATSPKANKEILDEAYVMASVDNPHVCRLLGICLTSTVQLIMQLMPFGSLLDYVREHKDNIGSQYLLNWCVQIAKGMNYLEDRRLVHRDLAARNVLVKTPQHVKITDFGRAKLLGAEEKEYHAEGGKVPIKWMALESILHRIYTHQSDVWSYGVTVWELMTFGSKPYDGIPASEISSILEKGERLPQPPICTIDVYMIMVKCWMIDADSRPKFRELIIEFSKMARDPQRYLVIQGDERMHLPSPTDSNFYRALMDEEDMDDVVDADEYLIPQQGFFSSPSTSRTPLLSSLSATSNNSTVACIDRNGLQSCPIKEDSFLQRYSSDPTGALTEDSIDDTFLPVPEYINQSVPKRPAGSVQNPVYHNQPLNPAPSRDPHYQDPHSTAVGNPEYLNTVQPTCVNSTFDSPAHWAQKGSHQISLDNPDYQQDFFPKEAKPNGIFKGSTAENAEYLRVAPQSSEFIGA
T2 sequence (P00533 25-1210): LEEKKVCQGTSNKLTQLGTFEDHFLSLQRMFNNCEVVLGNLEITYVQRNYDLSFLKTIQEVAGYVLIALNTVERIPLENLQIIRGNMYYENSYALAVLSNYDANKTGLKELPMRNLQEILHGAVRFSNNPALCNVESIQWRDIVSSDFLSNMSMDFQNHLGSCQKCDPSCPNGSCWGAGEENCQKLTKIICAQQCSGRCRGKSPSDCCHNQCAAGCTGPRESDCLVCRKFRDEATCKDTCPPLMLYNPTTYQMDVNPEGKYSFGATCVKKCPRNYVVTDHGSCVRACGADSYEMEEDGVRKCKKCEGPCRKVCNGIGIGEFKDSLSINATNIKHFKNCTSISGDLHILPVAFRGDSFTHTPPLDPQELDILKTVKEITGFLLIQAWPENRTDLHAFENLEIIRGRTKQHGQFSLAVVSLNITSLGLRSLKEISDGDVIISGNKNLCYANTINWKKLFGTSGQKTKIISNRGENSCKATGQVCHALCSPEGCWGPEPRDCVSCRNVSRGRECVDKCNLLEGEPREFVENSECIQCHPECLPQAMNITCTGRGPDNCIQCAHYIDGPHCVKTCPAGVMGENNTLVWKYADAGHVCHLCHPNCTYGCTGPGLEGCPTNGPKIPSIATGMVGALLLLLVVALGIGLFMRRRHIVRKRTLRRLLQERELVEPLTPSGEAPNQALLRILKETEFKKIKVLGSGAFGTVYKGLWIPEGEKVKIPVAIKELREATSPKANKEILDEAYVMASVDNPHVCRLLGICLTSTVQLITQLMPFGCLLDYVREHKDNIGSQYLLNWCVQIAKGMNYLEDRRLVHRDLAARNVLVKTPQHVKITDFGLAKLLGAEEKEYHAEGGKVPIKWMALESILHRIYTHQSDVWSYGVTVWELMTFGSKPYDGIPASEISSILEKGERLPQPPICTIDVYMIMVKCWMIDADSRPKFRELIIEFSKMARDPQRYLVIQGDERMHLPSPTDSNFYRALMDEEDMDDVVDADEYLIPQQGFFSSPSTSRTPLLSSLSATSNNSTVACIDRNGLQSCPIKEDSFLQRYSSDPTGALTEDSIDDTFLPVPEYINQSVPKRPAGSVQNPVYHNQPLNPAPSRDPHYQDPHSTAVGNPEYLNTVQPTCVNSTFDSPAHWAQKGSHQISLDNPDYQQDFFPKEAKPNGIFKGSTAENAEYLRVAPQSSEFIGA
Sequence of Ba/F3_EGFR_del19/T790M/C797S cell (P00533 with tags, fused parts or gaps DEL746-750/T790M/C797S, form open): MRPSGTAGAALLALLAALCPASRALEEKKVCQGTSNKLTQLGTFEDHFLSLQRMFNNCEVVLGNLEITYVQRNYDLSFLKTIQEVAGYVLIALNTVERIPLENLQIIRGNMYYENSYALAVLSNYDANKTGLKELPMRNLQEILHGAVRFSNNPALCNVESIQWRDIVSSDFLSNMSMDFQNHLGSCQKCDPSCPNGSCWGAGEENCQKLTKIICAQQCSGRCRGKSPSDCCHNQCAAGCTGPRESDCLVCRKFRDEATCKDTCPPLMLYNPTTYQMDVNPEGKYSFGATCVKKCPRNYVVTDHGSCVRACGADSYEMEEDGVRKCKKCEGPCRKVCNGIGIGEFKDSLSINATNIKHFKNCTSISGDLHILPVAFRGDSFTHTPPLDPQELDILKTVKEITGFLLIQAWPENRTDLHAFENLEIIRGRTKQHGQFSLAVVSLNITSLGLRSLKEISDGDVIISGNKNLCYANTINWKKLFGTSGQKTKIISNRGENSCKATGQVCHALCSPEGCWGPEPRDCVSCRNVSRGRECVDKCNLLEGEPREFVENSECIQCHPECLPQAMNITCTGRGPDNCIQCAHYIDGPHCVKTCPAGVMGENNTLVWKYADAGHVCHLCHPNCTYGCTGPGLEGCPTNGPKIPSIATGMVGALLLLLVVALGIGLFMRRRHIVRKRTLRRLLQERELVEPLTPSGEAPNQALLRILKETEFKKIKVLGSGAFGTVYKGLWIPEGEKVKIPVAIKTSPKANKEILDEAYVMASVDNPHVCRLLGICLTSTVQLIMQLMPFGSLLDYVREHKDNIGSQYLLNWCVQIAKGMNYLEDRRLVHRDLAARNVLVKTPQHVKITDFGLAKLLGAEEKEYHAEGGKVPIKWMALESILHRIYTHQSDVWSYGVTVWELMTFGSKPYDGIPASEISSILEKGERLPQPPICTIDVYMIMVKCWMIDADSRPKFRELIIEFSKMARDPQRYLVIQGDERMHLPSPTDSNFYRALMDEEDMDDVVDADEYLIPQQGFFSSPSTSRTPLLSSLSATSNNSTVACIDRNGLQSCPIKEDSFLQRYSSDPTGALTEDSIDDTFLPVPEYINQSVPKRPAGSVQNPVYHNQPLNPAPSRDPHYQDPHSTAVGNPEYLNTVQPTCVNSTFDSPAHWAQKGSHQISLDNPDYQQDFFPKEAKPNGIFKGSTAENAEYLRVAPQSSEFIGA

Compound: COc1cc(N2CCN(C)CC2)c2cc1Nc1ncc(Cl)c(n1)Nc1ccc(cc1S(C)(=O)=O)OCCC2 [Compound A1, 3^5-chloro-1^6-methoxy-1^4-(4-methylpiperazin-1-yl)-5^2-(methylsulfonyl)-6-oxa-2,4-diaza-3(2,4)-pyrimidina-1(1,3),5(1,4)-dibenzenacyclononaphane]
- IC50 (EGFR_L858R/T790M/C797S): 5580 nM
- ring closure, isolated yield ([1]; from COc1cc(N2CCN(C)CC2)c(CCCO)cc1Nc1ncc(Cl)c(Nc2ccc(O)cc2S(C)(=O)=O)n1, 16-membered ring, PPh3/DIAD, THF, 18.8 mM): 6%
- ring closure, yield of all isomers ([2]; from COc1cc(N2CCN(C)CC2)c(CCCO)cc1Nc1ncc(Cl)c(Nc2ccc(O)cc2S(C)(=O)=O)n1, DIAD/PPh3, THF, 18.8 mM): 6%

Compound: COc1cc(N2CCC(N3CCN(C)CC3)CC2)c2cc1Nc1ncc(Br)c(n1)Nc1ccc(cc1N(C)S(C)(=O)=O)OCCCCC2 [Compound A29, N-(3^5-bromo-1^6-methoxy-1^4-(4-(4-methylpiperazin-1-yl)piperidin-1-yl)-6-oxa-2,4-diaza-3(2,4)-pyrimidina-1(1,3),5(1,4)-dibenzenacycloundecaphane-5^2-yl)-N-methylmethanesulfonamide]
- IC50 (EGFR_WT): 9.2 nM
- IC50 (EGFR_L858R/T790M/C797S): 0.5 nM
- ring closure, isolated yield ([1]; from COc1cc(N2CCC(N3CCN(C)CC3)CC2)c(CCCCCBr)cc1Nc1ncc(Br)c(Nc2ccc(O)cc2N(C)S(C)(=O)=O)n1, 18-membered ring, KI/K2CO3, DMF, 10.2 mM): 55%
- ring closure, yield of all isomers ([2]; from COc1cc(N2CCC(N3CCN(C)CC3)CC2)c(CCCCCBr)cc1Nc1ncc(Br)c(Nc2ccc(O)cc2N(C)S(C)(=O)=O)n1, K2CO3/KI, DMF, 10.2 mM): 55%
- Tumor Volume ([3]; 5 mg/kg orally once daily, Day 0): 130 mm^3
- Tumor Volume ([3]; 5 mg/kg orally once daily, Day 2): 212 mm^3
- Tumor Volume ([3]; 5 mg/kg orally once daily, Day 4): 279 mm^3
- Tumor Volume ([3]; 5 mg/kg orally once daily, Day 7): 462 mm^3
- Tumor Volume ([3]; 5 mg/kg orally once daily, Day 9): 633 mm^3
- Tumor Volume ([3]; 5 mg/kg orally once daily, Day 11): 819 mm^3
- Tumor Volume ([3]; 5 mg/kg orally once daily, Day 14): 1061 mm^3
- tumor growth inhibition rate TGITV (%) ([3]; 5 mg/kg orally once daily): 68%
- Tumor Volume ([3]; 15 mg/kg orally once daily, Day 0): 130 mm^3
- Tumor Volume ([3]; 15 mg/kg orally once daily, Day 2): 171 mm^3
- Tumor Volume ([3]; 15 mg/kg orally once daily, Day 4): 226 mm^3
- Tumor Volume ([3]; 15 mg/kg orally once daily, Day 7): 346 mm^3
- Tumor Volume ([3]; 15 mg/kg orally once daily, Day 9): 469 mm^3
- Tumor Volume ([3]; 15 mg/kg orally once daily, Day 11): 597 mm^3
- Tumor Volume ([3]; 15 mg/kg orally once daily, Day 14): 781 mm^3
- tumor growth inhibition rate TGITV (%) ([3]; 15 mg/kg orally once daily): 76%
- Tumor Volume ([3]; 45 mg/kg orally once daily, Day 0): 130 mm^3
- Tumor Volume ([3]; 45 mg/kg orally once daily, Day 2): 147 mm^3
- Tumor Volume ([3]; 45 mg/kg orally once daily, Day 4): 172 mm^3
- Tumor Volume ([3]; 45 mg/kg orally once daily, Day 7): 108 mm^3
- Tumor Volume ([3]; 45 mg/kg orally once daily, Day 9): 78 mm^3
- Tumor Volume ([3]; 45 mg/kg orally once daily, Day 11): 25 mm^3
- Tumor Volume ([3]; 45 mg/kg orally once daily, Day 14): 0 mm^3
- tumor growth inhibition rate TGITV (%) ([3]; 45 mg/kg orally once daily): 100%
- tumor growth inhibition (in words) ([3]; all doses (5, 15, 45 mg/kg)): significant tumor growth inhibition
- GI50 [4]: 16.4 nM
- IC50 (Ba/F3_WT cell): 1320 nM
